Reference: patent publication US9029451B2, “Waterborne coating compositions that include 2,2,4-trimethyl-3-oxopentanoate esters as reactive coalescents” (Eastman Chemical Company, priority 2010, dated 2015)
Like-named read-outs stand apart in the source and are kept apart here.

Tests used:
[1] = Water miscibility, % organic in water method (gravimetric); assay type: physicochemical; details: saturation point
Procedure: (§1) Water miscibility was measured by the following methods:
% Organic in Water Method:
The novel coalescent was added drop wise to 25 mL Milli-Q water and the mixture stirred at 1000 rpm for 10 minutes. If the coalescent dissolved, an additional drop or drops were added until traces of the organic solvent remained after the mixture had been stirred for 20 minutes. The percent organic solvent at the saturation point was determined gravimetrically.

[2] = Boiling point of coalescent; assay type: physicochemical
Procedure: The novel compounds were evaluated for their coalescing properties and compared to 2,2,4-trimethylpentane-1,3-diol monoisobutyrate (Texanol) and Optifilm Enhancer 400 (OE 400), two coalescents that are widely used in industry (Table 2).

[3] = Water miscibility, % water in solvent method (Karl Fischer); assay type: physicochemical; details: stirred approx. 48 hours
Procedure: as §1
% Water in Solvent Method:
Approximately 5-10 mL of the novel coalescent was slowly added to 10-15 mL Milli-Q water in an 8-dram vial. The mixture was slowly stirred for approximately 48 hours at 100-150 rpm. The organic layer was analyzed in triplicate for percent water by Karl Fischer methodology.

Density, ASTM D 1475-98 = assay type: physicochemical
[4] = % non-volatile, 110° C. for 1 hour (ASTM D2369); assay type: physicochemical
Procedure: 2,2,4-trimethyl-3-oxopentanoate esters useful as reactive coalescents according to the invention include those having a weight percent volatile content of less than 50%, as measured according to ASTM Method D2369. This test may be conducted generally by heating the sample in a forced air oven at 110° C. for 60 minutes. The weight loss after the test is deemed to result from a loss of volatiles originally present in the sample; the percent volatile present in the original sample may then be calculated. Although the cited test can be conducted on coating compositions containing other components such as latex polymers, the values cited herein may be obtained from a sample of the coalescent itself. Thus, the weight percent volatile of a coalescent may be used herein as a yardstick to measure the amount of VOC the coalescent would contribute to the VOC of a coating composition.

[5] = Hydrolytic stability in latex at 120° F., pH and Brookfield viscosity; assay type: physicochemical; details: for hydrolytic stability, in words: Rhoplex AC 2508, compared with industry standards
Procedure: Approximately 100 grams of either Rhoplex AC 2508 (Rohm & Haas acrylic polymer emulsion) or Rhoplex SG-10M (Rohm & Haas acrylic polymer emulsion) was weighed out into a 4 ounce jar and 10 phr (parts per hundred resin) of the coalescing aid was added (based on percent solids of the emulsion by weight). The sample was placed on lab rollers for 24 hours before the initial pH and viscosity was taken. The viscosity was measured by a Brookfield viscometer in centipoises. The sample was then placed into a lab oven at 120° F. The pH and viscosity was checked weekly for four weeks (Tables 3 & 4). Any change in the appearance of the sample such as gel particles or phase separation was recorded weekly also.

[6] = MFFT testing, coalescing efficiency
Procedure: The MFFT samples were prepared by weighing out 20 grams (+/−0.01 g) of emulsion into 50 ml beakers. The beakers of emulsion were placed on magnetic stirrers and the coalescing aid added dropwise by pipet. The weight of the drops were determined by adding 40 drops of the coalescing aid to a tared weighing dish, then the weight per drop was calculated by taking an average of the total weight (total weight divided by 40 drops). The coalescing aid was added to the emulsion based on solids by weight. The MFFT samples were allowed to stir for approximately 15 minutes, transferred to 8 dram vials and placed onto lab rollers and allowed to equilibrate for at least 24 hours. The samples were then drawn down on the MFFT bar, which is typically set on range #2 (0° to 18° C.), and the films allowed to dry. The areas in which the films have stopped cracking are visually determined and the MFFT value is read from the scale on the instrument and converted to degrees Fahrenheit. Linear Regression was used to calculate the amount of coalescing aid required to lower the films MFFT to 40° F. In Table #5, the phr40 values (parts per hundred resin based on solids by weight) are the amount of coalescing aid required to reduce the MFFT to 40° F. A lower number indicates the coalescent is more efficient at reducing the MFFT of the film.

[7] = Rhoplex AC 2508, 10 phr coalescent, Initial
[8] = Rhoplex AC 2508, 10 phr, 120° F., 1 week
[9] = Rhoplex AC 2508, 10 phr, 120° F., 2 weeks
[10] = Rhoplex AC 2508, 10 phr, 120° F., 3 weeks
[11] = Rhoplex AC 2508, 10 phr, 120° F., 4 weeks
[12] = Rhoplex SG-10M, 10 phr coalescent, Initial
[13] = Rhoplex SG-10M, 10 phr, 120° F., 1 week
[14] = Rhoplex SG-10M, 10 phr, 120° F., 2 weeks
[15] = Rhoplex SG-10M, 10 phr, 120° F., 3 weeks
[16] = Rhoplex SG-10M, 10 phr, 120° F., 4 weeks
[17] = latex Acronal 296D, linear regression
[18] = latex Rhoplex HG-74P, linear regression
[19] = latex Rhoplex SG-10M, linear regression
[20] = latex Ucar 379G, linear regression
[21] = latex Ucar 626, linear regression

| Compound | Water Miscibility % solvent in water layer [1] [%] | Water Miscibility % water in solvent layer [3] [%] | Density (lbs/gal) (Density, ASTM D 1475-98) | % non-volatile @ 110° C. for 1 hour [4] [%] | Viscosity (cps) [5, 7] [cps] | pH [5, 7] | Viscosity (cps) [5, 8] [cps] | pH [5, 8] | Viscosity (cps) [5, 9] [cps] | pH [5, 9] | Viscosity (cps) [5, 10] [cps] | pH [5, 10] | Viscosity (cps) [5, 11] [cps] | pH [5, 11] | phr of Coalescent required to lower MFFT to 40° F. [6, 17] [phr] | phr of Coalescent required to lower MFFT to 40° F. [6, 18] [phr] | phr of Coalescent required to lower MFFT to 40° F. [6, 19] [phr] | phr of Coalescent required to lower MFFT to 40° F. [6, 20] [phr] | phr of Coalescent required to lower MFFT to 40° F. [6, 21] [phr] | Boiling Point (° C. @ 760 torr) [2] [°C] | other results |
| --- | --- | --- | --- | --- | --- | --- | --- | --- | --- | --- | --- | --- | --- | --- | --- | --- | --- | --- | --- | --- | --- |
| 2,2,4-trimethylpentane-1,3-diol monoisobutyrate [Texanol, reference compound] | 0.1 | 3.0 | 7.92 | 0.0 | 905 | 8.2 | 685 | 7.9 | 665 | 8.0 | 631 | 7.8 | 638 | 7.9 | 4.7 | 8.3 | 4.6 | 0.1 | 6.2 |  | Boiling Point (° C. @ 760 torr) ([2]; @ 760 torr): 255.0 °C; Viscosity (cps) [5, 12]: 544 cps; pH [5, 12]: 8.7; Viscosity (cps) [5, 13]: 554 cps; pH [5, 13]: 8.5; Viscosity (cps) [5, 14]: 484 cps; pH [5, 14]: 8.8; Viscosity (cps) [5, 15]: 474 cps; pH [5, 15]: 8.6; Viscosity (cps) [5, 16]: 471 cps; pH [5, 16]: 8.3 |
| CC(C)C(=O)C(C)(C)C(=O)OCCO [Example 1, 2-Hydroxyethyl 2,2,4-trimethyl-3-oxopentanoate] | 5.0 | 7.6 | 8.75 | 10.6 | 1430 | 8.3 | 1360 | 7.7 | 1150 | 7.7 | 1060 | 7.6 | 1070 | 7.4 | 4.2 | 8.2 | 4.7 | 1.5 | 6.5 | 254.8 |  |
| CC(C)C(=O)C(C)(C)C(=O)OCC(C)(C)CO [Example 2, 3-Hydroxy-2,2-dimethylpropyl 2,2,4-trimethyl-3-oxopentanoate] | 0.09 | 4.0 | 8.34 | 47.9 | 1510 | 8.5 | 1260 | 8.4 | 1230 | 8.4 | 1220 | 8.3 | 1130 | 8.3 | 5.9 | 8.8 | 5.6 | 1.6 | 6.4 | 291.2 | hydrolytic stability, in words [5]: better than the industry standards |
| CC(C)C(=O)C(C)(C)C(=O)OCC(C)(C)C(O)C(C)C (stereo not drawn) [Example 3, 3-Hydroxy-2,2,4-trimethylpentyl 2,2,4-trimethyl-3-oxopentanoate] | 0.07 | 2.1 | 8.13 | 63.8 | 1430 | 8.5 | 1300 | 8.4 | 1290 | 8.4 | 1250 | 8.4 | 1130 | 8.3 | 6.0 | 9.7 | 5.6 | 1.3 | 8.2 | 287.7 | hydrolytic stability, in words [5]: better than the industry standards |
| CC(C)C(=O)C(C)(C)C(=O)OCCOCCOCCOC(=O)C(C)(C)C(=O)C(C)C [Example 4] | 0.09 | 0.01 | 8.82 | 99.0 | 1380 | 8.4 | 1200 | 8.3 | 1210 | 8.2 | 1150 | 8.3 | 1100 | 8.2 | 5.8 | 9.1 | 6.7 | 1.3 | 7.0 | 320.0 | volatility, in words ([4]; compared with Texanol): almost completely nonvolatile; hydrolytic stability, in words [5]: better than the industry standards |
